Source: patent publication US8268854B2, “Aza-beta-carbolines and methods of using same” (The UWM Research Foundation, Inc., priority 2008, dated 2012)
Counter-ions that a name gives are not always drawn.

Experiments:
[1] = target: T1, SERT transporter (Homo sapiens, UniProt P31645); test: PDSP primary radioligand binding assay; details: compound 10 μM, n=4, read-out: mean percentage inhibition, SERT transporter
T1 construct: expressed in transfected cells
Experimental: (§1) Primary and secondary radioligand binding assays are performed. In general, the primary assay is run at very high ligand (compound) concentration as a broad screen to determine whether a compound binds to a particular receptor. If greater than 50% inhibition at 10 μM (high concentration of compound) at a particular receptor is determined, a secondary assay is performed on that receptor. Data from the secondary assay is the binding affinity (Ki value).
(§2) A solution of the compound to be tested is prepared as a 1 mg/ml stock in Standard Binding Buffer or dimethyl sulfoxide (DMSO) according to its solubility. A similar stock of a reference compound (positive control) is also prepared.
(§3) Radioligand (radioligands are presented in Table 39) is diluted to five times the assay concentration (assay concentrations are presented in Table 39) in Standard Binding Buffer. Typically, the assay concentration of radioligand is a value between one half the KD and the KD of a particular radioligand at its target. Aliquots (50 μL) of radioligand are dispensed into the wells of a 96-well plate (see FIG. 11) containing 100 μL of Standard Binding Buffer (Table 40). Then, duplicate 50 μL aliquots of the test and reference compound dilutions are added (see FIG. 11). According to FIG. 11, increasing concentrations (from left to right) of reference or test compound (diluted in buffer) are added (50 μL aliquots, in duplicate) from 5× stock solutions to wells containing 50 μL of 5× radioligand (fixed concentration, prepared in buffer) and 100 μL of buffer. Finally, 50 μL of receptor-containing membrane homogenate (5× suspension in buffer) are added to achieve a final assay volume of 250 μL. Final concentrations of reference or test compound are listed above the columns in FIG. 11.
(§4) Finally, crude membrane fractions of cells expressing recombinant target (prepared from 10 cm plates by harvesting phosphate buffered saline (PBS)-rinsed monolayers, resuspending and lysing in chilled, hypotonic 50 mM Tris-HCl, pH 7.4, centrifuging at 20,000×g, decanting the supernatant and storing at −80° C.; typically, one 10 cm plate provides sufficient material for 24 wells) are resuspended in 3 mL of chilled Standard Binding Buffer and homogenized by several passages through a 26 gauge needle, and then 50 μL are dispensed into each well.
(§5) The 250 μL reactions are incubated at room temperature and shielded from light (to prevent photolysis of light-sensitive ligands) for 1.5 hours, then harvested by rapid filtration onto Whatman GF/B glass fiber filters pre-soaked with 0.3% polyethyleneimine using a 96-well Brandel harvester. Four rapid 500 μL washes are performed with chilled Standard Binding Buffer to reduce non-specific binding. Filters are placed in 6 mL scintillation tubes and allowed to dry overnight. The next day, 4 mL of EcoScint scintillation cocktail (National Diagnostics) are added to each tube. The tubes are capped, labeled, and counted by liquid scintillation counting. For higher throughput assays, bound radioactivity is harvested onto 0.3% polyethyleneimine-treated, 96-well filter mats using a 96-well Filtermate harvester. The filter mats are dried, then scintillant is melted onto the filters, and the radioactivity retained on the filters is counted in a Microbeta scintillation counter.
(§6) Raw data (dpm) representing total radioligand binding (i.e., specific+non-specific binding) are plotted as a function of the logarithm of the molar concentration of the competitor (i.e., test or reference compound). […]

[2] = target: T2, Serotonin receptor 5ht1b (Homo sapiens, UniProt P28222); test: PDSP primary radioligand binding assay; details: compound 10 μM
T2 construct: expressed in transfected cells
Experimental: as §1, §2, §3, §4, §5, §6

[3] = target: T3, Dopamine receptor D4 (Homo sapiens, UniProt P21917); test: PDSP secondary radioligand binding assay
T3 construct: expressed in transfected cells
T3 sequence (P21917 1-419): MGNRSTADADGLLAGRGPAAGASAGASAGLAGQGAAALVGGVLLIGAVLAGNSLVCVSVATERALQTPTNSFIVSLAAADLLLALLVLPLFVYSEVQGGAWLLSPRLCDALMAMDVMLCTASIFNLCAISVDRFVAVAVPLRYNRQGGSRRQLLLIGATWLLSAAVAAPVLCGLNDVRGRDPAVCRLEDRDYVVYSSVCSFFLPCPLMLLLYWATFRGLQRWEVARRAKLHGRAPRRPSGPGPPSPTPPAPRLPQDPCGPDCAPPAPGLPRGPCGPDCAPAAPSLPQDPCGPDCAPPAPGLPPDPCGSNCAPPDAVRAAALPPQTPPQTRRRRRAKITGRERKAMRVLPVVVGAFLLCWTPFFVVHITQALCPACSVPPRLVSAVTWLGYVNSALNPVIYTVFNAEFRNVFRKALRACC
Experimental: as §1
This assay is used to test binding to receptors such as the serotonin receptors: 5-HT1A, 5-HT1B, 5-HT1D, 5-HT1E, 5-HT2A, 5-HT2B, 5-HT2C, 5-HT3, 5-HT5A, 5-HT6 and 5-HT7. The protocol is adapted from Roth et al. J. Pharmacol. Exp. Ther. 1986, 238, 480-485 and Roth et al. J. Pharmacol. Exp. Ther. 1994, 268, 1403-1410. The assay buffer is Standard Binding Buffer (50 mM Tris-HCl, 10 mM MgCl2, 0.1 mM EDTA, pH 7.4). The membrane fraction source is transiently or stably transfected cell lines (e.g., HEK293, COS, CHO, NIH3T3).
A solution of the compound to be tested is prepared as a 1 mg/mL stock in Standard Binding Buffer or DMSO according to its solubility. A similar stock of a reference compound (positive control) is also prepared.
Radioligand (see Table 41) is diluted to five times the assay concentration (see Table 21) in Standard Binding Buffer. […]
as §5, with “Four rapid 500 μL washes are performed with chilled Standard Binding Buffer to reduce non-specific binding. Filters are placed in 6 mL scintillation tubes and allowed to dry overnight. The next day, 4 mL of EcoScint scintillation cocktail (National Diagnostics) are added to each tube.” left out, “counter. […]” for “counter.”

T2 sequence (P28222 whole entry): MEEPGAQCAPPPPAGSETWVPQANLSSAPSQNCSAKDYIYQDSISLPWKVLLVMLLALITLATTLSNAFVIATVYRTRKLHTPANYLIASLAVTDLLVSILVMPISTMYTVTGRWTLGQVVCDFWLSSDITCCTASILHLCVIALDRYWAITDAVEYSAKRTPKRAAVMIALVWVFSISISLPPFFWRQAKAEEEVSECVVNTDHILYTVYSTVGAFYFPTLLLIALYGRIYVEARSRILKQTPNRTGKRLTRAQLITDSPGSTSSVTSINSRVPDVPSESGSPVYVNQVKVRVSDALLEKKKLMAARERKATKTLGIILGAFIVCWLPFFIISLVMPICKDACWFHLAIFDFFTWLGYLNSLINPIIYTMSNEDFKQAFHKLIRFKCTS
T1 sequence (P31645 whole entry): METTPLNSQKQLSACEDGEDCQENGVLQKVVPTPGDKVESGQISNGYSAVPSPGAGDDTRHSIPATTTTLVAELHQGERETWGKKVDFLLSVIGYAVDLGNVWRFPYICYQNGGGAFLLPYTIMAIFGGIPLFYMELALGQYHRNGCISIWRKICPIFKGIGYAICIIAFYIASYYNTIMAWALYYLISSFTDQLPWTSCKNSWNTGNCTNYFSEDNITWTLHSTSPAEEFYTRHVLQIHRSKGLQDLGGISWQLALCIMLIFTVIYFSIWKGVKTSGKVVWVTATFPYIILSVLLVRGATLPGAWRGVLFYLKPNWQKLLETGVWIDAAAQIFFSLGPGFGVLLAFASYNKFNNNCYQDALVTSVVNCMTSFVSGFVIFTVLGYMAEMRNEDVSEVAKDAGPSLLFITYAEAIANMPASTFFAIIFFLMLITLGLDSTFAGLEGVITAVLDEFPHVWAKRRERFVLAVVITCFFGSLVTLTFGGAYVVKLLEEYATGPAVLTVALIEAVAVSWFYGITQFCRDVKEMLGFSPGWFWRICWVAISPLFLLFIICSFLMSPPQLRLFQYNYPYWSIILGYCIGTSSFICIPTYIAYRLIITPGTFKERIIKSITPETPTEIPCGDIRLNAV

inhibition at 10 µM [1]: 22.1%
mean percentage inhibition, Serotonin receptor 5ht1b ([2]; n=4, hydrochloride, 10 µM): 47%
inhibition at 10 µM ([2]; n=4, read-out: mean percentage inhibition, Serotonin receptor 5ht1b): < 50%
Ki [3]: 7.5 µM
SMILES: CCCOc1cc2c(cn1)[nH]c1ccncc12 [Compound 2, 8-Propoxypyridino[4′,3′-5,4]pyrrolo[3,2-c]pyridine hydrochloride]
